Test results from BindingDB's records for doi:10.1021/jm061299k (Bayer Healthcare Pharmaceuticals, 2007).

biological target: T1, Peroxisome proliferator-activated receptor alpha (Homo sapiens, UniProt Q07869); assay: PPAR FRET Assay; details: 25 °C
T1 sequence (Q07869 whole entry): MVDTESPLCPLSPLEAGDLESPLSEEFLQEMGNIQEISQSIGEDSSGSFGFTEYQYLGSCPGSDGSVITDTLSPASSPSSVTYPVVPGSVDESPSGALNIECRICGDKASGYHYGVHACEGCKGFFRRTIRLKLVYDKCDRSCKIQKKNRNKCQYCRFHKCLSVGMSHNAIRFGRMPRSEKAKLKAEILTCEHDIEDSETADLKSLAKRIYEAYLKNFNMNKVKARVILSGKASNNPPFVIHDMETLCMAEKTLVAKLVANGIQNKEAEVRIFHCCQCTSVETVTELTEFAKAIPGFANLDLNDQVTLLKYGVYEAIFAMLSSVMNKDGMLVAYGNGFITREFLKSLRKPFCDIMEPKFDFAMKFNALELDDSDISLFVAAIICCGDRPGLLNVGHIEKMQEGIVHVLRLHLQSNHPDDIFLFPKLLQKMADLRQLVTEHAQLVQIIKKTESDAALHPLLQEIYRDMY
Method: (§1) Activity was assessed by measuring the human PPAR ligand binding domain with the co-activator protein. Europium labeled anti-GST antibody, streptavidin-labeled APC, biotin-labeled co-activator protein, and PPAR-GST were incubated at room temperature in buffer in the presence or absence of test compound.

Row | EC50 [nM] | Structure (SMILES)
1 | 101 | CCCc1cc(-c2nc3c(s2)CCCO3)ccc1OCCCOc1ccc2c(c1)CC[C@H]2CC(=O)O [2-[(1S)-5-[3-(2-propyl-4-{5H,6H,7H-pyrano[2,3-d][1,3]thiazol-2-yl}phenoxy)propoxy]-2,3-dihydro-1H-inden-1-yl]acetic acid]

biological target: T2, Peroxisome proliferator-activated receptor delta (Homo sapiens, UniProt Q03181); assay: PPAR FRET Assay; details: 25 °C
T2 sequence (Q03181 whole entry): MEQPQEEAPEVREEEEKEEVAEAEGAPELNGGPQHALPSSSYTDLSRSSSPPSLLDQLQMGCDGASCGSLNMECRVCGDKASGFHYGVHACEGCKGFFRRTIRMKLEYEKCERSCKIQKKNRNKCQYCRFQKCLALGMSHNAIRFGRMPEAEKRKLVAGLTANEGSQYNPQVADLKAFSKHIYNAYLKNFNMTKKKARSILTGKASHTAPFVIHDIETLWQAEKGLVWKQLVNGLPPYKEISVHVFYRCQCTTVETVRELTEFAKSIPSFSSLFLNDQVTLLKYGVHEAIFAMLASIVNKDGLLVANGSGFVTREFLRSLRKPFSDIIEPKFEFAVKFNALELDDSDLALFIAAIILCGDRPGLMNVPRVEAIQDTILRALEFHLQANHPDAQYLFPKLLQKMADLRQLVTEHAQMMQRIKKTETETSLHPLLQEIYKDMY
Method: as §1

Row | EC50 [nM] | Structure (SMILES)
2 | 4 | CCCc1cc(-c2nc3c(s2)CCCO3)ccc1OCCCOc1ccc2c(c1)CC[C@H]2CC(=O)O [2-[(1S)-5-[3-(2-propyl-4-{5H,6H,7H-pyrano[2,3-d][1,3]thiazol-2-yl}phenoxy)propoxy]-2,3-dihydro-1H-inden-1-yl]acetic acid]

biological target: Peroxisome proliferator-activated receptor gamma (Mus musculus) (UniProt P37238); assay: PPARgamma activity was assessed by the cell-based insulin receptor binding assay (IRBA) in mouse 3T3-L1 cells, measuring the increase in the number of insulin receptors; details: not given

Row | Structure (SMILES) | EC50 [nM]
3 | O=C(O)C[C@@H]1CCc2cc(OCCCOc3ccc4cnoc4c3)ccc21 [2-[(1S)-5-[3-(1,2-benzoxazol-6-yloxy)propoxy]-2,3-dihydro-1H-inden-1-yl]acetic acid] | > 10000
4 | O=C(O)C[C@@H]1CCc2cc(OCCCOc3ccc4cc[nH]c4c3)ccc21 [2-[(1S)-5-[3-(1H-indol-6-yloxy)propoxy]-2,3-dihydro-1H-inden-1-yl]acetic acid] | > 10000
5 | O=C(O)C[C@@H]1CCc2cc(OCCCOc3ccccc3)ccc21 [2-[(1S)-5-(3-phenoxypropoxy)-2,3-dihydro-1H-inden-1-yl]acetic acid] | > 10000
6 | COc1cc(-c2nc(C)c(C(=O)N(C)C)s2)ccc1OCCCOc1ccc2c(c1)CC[C@H]2CC(=O)O [2-[(1S)-5-(3-{4-[5-(dimethylcarbamoyl)-4-methyl-1,3-thiazol-2-yl]-2-methoxyphenoxy}propoxy)-2,3-dihydro-1H-inden-1-yl]acetic acid] | 312
7 | O=C(O)C[C@@H]1CCc2cc(OCCCOc3ccc4ncoc4c3)ccc21 [2-[(1S)-5-[3-(1,3-benzoxazol-6-yloxy)propoxy]-2,3-dihydro-1H-inden-1-yl]acetic acid] | > 10000
8 | CCCc1cc(-c2nc(C)c(C(=O)N(C)C)s2)ccc1OCCCOc1ccc2c(c1)CC[C@H]2CC(=O)O [2-[(1S)-5-(3-{4-[5-(dimethylcarbamoyl)-4-methyl-1,3-thiazol-2-yl]-2-propylphenoxy}propoxy)-2,3-dihydro-1H-inden-1-yl]acetic acid] | 20

Continued, values first:

Row | EC50 [nM] | Structure (SMILES)
9 | > 10000 | Cc1ccc(OCCCOc2ccc3c(c2)CC[C@H]3CC(=O)O)cc1C [2-[(1S)-5-[3-(3,4-dimethylphenoxy)propoxy]-2,3-dihydro-1H-inden-1-yl]acetic acid]
10 | > 10000 | CCCc1c(OCCCOc2ccc3c(c2)CC[C@H]3CC(=O)O)ccc2c1ccn2C [2-[(1S)-5-{3-[(1-methyl-4-propyl-1H-indol-5-yl)oxy]propoxy}-2,3-dihydro-1H-inden-1-yl]acetic acid]
